For data set [1], the target named is T1, Purine nucleoside phosphorylase (Homo sapiens) (UniProt P00491).
T1 sequence (whole entry): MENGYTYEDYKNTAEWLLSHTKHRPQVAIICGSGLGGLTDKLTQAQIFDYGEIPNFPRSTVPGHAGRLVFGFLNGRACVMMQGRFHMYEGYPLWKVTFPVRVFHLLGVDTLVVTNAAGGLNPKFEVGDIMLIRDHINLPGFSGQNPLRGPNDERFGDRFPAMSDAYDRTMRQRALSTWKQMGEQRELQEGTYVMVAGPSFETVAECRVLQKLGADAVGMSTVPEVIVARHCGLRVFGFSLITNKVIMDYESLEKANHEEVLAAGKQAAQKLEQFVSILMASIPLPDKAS
The data set is described as follows: Binding affinity to human PNP assessed as kinetic isotope effect. To be noted: tested as the 3H-labelled form.

For data set [2], the target named is T2, Purine nucleoside phosphorylase (Homo sapiens, UniProt P00491).
T2 sequence (P00491 whole entry): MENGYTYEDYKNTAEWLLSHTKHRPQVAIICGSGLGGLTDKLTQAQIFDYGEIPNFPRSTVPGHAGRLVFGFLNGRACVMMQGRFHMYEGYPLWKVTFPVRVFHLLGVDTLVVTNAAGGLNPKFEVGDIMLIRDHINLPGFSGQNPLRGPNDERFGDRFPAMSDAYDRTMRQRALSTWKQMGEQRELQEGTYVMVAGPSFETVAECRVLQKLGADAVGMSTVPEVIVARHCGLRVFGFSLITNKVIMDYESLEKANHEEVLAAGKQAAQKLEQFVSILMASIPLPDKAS
In words: Binding affinity to human PNP.

Substrate in data set [3]: O=c1[nH]cnc2c1ncn2[C@@H]1O[C@H](CO)[C@@H](O)[C@H]1O
The data set is described as follows: Activity at human PNP.

The Kd is the free concentration of one partner at which half of the binding sites on the other are occupied at equilibrium, for simple one-to-one binding. Low values mean higher affinity, high ones lower affinity. One may read the Km as the concentration of substrate that gives half-maximal velocity.

In the case of `O=c1[nH]cnc2c1ncn2[C@@H]1O[C@H](CO)[C@@H](O)[C@H]1O`, the Activity in data set [1] came out at 4.7%.

In turn, `[3H]C(O)[C@H]1CN(Cc2c[nH]c3c(=O)[nH]cnc23)C[C@@H]1O` (stereo partly drawn) registered a Kd in data set [2] of 8.5 pM.

B1: Purine nucleoside phosphorylase (Homo sapiens), P00491 (protein)
chain: MENGYTYEDYKNTAEWLLSHTKHRPQVAIICGSGLGGLTDKLTQAQIFDYGEIPNFPRSTVPGHAGRLVFGFLNGRACVMMQGRFHMYEGYPLWKVTFPVRVFHLLGVDTLVVTNAAGGLNPKFEVGDIMLIRDHINLPGFSGQNPLRGPNDERFGDRFPAMSDAYDRTMRQRALSTWKQMGEQRELQEGTYVMVAGPSFETVAECRVLQKLGADAVGMSTVPEVIVARHCGLRVFGFSLITNKVIMDYESLEKANHEEVLAAGKQAAQKLEQFVSILMASIPLPDKAS
B1: the Michaelis-Menten constant (Km) in data set [3] stood at 40 µM.

These data come from ChEMBL document CHEMBL1212725, “Enzymatic transition states and dynamic motion in barrier crossing” (Nat Chem Biol, 2009).
